Article PMC7893915, “Assessing cross-resistance within the pyrethroids in terms of their interactions with key cytochrome P450 enzymes and resistance in vector populations” (Parasites & Vectors, 2021)
Like-named read-outs stand apart in the source and are kept apart here.

Assays:
[1] = molecular target: T1, CYP6Z3 (Anopheles gambiae, UniProt Q86LT6, H411Y/S209G/W396L); experiment: Inhibition screening of pyrethroids, diethoxyfluorescein, CYP6Z3; format: biochemical
T1 sequence (Q86LT6 1-492 S209G/W396L/H411Y): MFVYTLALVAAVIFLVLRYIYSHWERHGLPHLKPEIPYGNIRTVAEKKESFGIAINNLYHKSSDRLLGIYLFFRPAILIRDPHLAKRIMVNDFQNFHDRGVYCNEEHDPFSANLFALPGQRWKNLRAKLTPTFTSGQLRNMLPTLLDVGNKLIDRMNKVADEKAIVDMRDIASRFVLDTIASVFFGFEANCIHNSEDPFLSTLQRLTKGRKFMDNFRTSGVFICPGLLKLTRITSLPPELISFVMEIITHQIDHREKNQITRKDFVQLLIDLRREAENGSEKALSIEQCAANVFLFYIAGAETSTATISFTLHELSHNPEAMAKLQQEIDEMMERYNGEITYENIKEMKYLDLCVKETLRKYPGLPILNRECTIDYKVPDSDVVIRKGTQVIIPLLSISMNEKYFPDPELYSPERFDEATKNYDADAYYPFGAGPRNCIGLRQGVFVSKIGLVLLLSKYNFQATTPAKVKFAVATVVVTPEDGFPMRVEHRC
T1 sequence (Q86QH5 1-679 partner): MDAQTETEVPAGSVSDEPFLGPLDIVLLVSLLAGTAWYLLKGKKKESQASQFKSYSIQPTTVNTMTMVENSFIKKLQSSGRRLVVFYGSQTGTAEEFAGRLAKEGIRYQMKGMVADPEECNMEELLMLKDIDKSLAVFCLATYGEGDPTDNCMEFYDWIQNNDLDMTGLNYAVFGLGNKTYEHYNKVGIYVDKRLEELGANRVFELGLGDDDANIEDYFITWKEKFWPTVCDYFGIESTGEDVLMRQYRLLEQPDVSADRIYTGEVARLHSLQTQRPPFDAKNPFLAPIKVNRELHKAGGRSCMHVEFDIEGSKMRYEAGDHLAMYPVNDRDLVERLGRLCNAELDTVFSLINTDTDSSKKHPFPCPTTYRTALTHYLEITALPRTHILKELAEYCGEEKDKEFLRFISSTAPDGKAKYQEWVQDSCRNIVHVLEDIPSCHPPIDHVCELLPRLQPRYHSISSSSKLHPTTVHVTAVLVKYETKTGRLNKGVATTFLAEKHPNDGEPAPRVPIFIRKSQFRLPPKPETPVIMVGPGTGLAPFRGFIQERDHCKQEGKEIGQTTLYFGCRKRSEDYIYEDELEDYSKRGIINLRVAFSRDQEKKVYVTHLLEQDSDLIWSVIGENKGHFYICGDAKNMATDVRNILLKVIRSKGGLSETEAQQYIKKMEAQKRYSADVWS
Description: (§1) Cytochrome P450 inhibition assays using fluorogenic probe substrates have become commonplace in drug discovery screening cascades and are a rapid method of screening for insecticide interactions with mosquito P450s to predict insecticide binding, metabolism, cross-resistance and synergism. In this study, the half maximal inhibitory concentration (IC50), which provides a value for inhibition of each P450 by each pyrethroid (also referred to as ‘binding affinity’), and the percentage depletion, which gives a value for metabolism of each pyrethroid by each P450 (also referred to as vulnerability to metabolic attack), were both included as parameters to establish a P450s structural activity relationship model. This model was used to understand both the chemistry of the pyrethroids and the interaction with mosquito P450s that function as monooxygenases in metabolic resistance, to predict cross-resistance liabilities in vivo. […] A low percentage depletion indicates low metabolism of the pyrethroid, which means that it may be less vulnerable to resistance mediated by P450s.
(§2) In addition, inhibition activity data for these pyrethroids exposed to CYP6Z3 from the An. gambiae Kisumu strain were also generated (Additional file 1).
1. Preparation of An. gambiae CYP6Z3 and cloning
Total RNA was extracted with Arcturus PicoPure Kit (Applied Biosystems, USA) from ten adult An. gambiae mosquitoes from the Kisumu strain [1]. Complementary DNA was prepared using Superscript III (Invitrogen) with an oligo (dT)20 primer and used as a template for amplifying full -length AgCyp6z3 with KOD DNA polymerase (Merk Chemicals) . The gene-specific primers used in these high -fidelity PCRs (Table S1) were designed according to the reference An. gambiae PEST CYP6Z3 genome sequence (Accession number AY193727) The PCR product was ligated into pGEM T-easy vector (Promega) and sequenced on both strands. Consistent with the high frequency of polymorphism in An. gambiae P450s [2](Martin Nature Ref) there were 36 single nucleotide polymorphism (SNPs) compared with the reference sequence, of which three produced amino acid changes, S209G, W396L, and H411Y. For expression, the ompA leader sequence (ompA) was engineered onto the amino - terminus of the AgCyp6z3 gene to direct the P450 into the E. coli […] during expression as previously described. The ompA-leader was fused to AgCyp6z3 cDNA in frame with AgCyp6z3 initiation codon by fusion PCR using High fidelity Phusion polymerase (Scientific). The ompA AgCyp6z3 fusion was flanked at the 5′ and 3′ ends with NdeI and EcoR1, respectively for ligation into NdeI/EcoRI linearised pB13 (pCWori+).
Table S1. Primers used for amplification of CYP6Z3 and in vitro functional characterisation […]
ompA+2 Forward […]
ompA+2 CYP6Z3 fusion […]
2. Preparation of membranes expressing P450 and AgCPR
To express functional P450, AgCyp6z3 cloned into pB13 plasmid was co-transformed into E. coli JM109 cells with An. gambiae NADPH-cytochrome P450 reductase (AgCPR-pACYC). The P450 and the AgCPR were previously fused with ompA and pelB leader sequences respectively to direct the expressed proteins to the inner bacterial periplasm in order to form functional monooxygenase complex. For P450 production, 200 mL E. coli cultures in Terrific Broth were incubated at 21°C with shaking at 120 RPM for 18–24 h after induction with 1 mM IPTG. Following expression, E. coli membranes containing CYP6Z3 were isolated and P450 and AgCPR content measured as previously described. Samples were stored in aliquots of 100 µL at −80°C. An. gambiae cytochrome b5 was prepared as described previously to supplement enzyme reactions at an 8:1 M ratio, b5: P450 [4].
3. Inhibition screening of pyrethroids.
Inhibition screening of pyrethroid inhibitors and IC50 calculations carried out according Yunta et al. […]

[2] = test system: CYP6M2; conditions: read-out: IC50 CYP6M2, inhibition of diethoxyfluorescein metabolism, cited from earlier work
[3] = test system: P450 panel (CYP6M2, CYP6P3, CYP6P9a, CYP6P2, CYP9J5, CYP6Z3, CYP6Z2); experiment: P450 inhibition, whole P450 panel (mean across P450s); format: biochemical, Anopheles gambiae and An. funestus; conditions: for IC50: Anopheles gambiae and Anopheles funestus, mean of the seven P450s of Table S2, read-out: IC50 Mean across P450s
Description: as §1, §2

[4] = test system: CYP6P9a; conditions: Incubation time 2h; mean ± SD; ref [38], [41]; cited from earlier work
[5] = footnote b, ref Yunta et al. 2019[10]
[6] = recombinant P450s, probe diethoxyfluorescein
[7] = footnote a, ref Yunta et al. 2016[8]

SMILES | IC50 [1] | IC50 [2, 5] | IC50 [3, 6] | binding to the P450s panel, rank in words ([3]; among the six pyrethroids) | % Insecticide depletion CYP6P9a [4] | IC50 [2, 7] | IC50 [3]
Cc1c(COC(=O)[C@@H]2[C@H](/C=C(\Cl)C(F)(F)F)C2(C)C)cccc1-c1ccccc1 (racemic) [Bifenthrin, bifenthrin] | 17 µM | 5.6 µM | 9.8 µM | lowest binding | 53.4 ± 1.6% |  | 
CC1(C)[C@H](C(=O)O[C@H](C#N)c2cccc(Oc3ccccc3)c2)[C@@H]1/C=C(\Cl)C(F)(F)F (racemic) [λ-Cyhalothrin, λ-cyhalothrin] | 3.3 µM | 6.6 µM | 7.2 µM |  | 67.1 ± 3.1% |  | 
CC1(C)[C@H](C(=O)O[C@H](C#N)c2cccc(Oc3ccccc3)c2)[C@@H]1C=C(Br)Br [Deltamethrin, deltamethrin] | 3.4 µM |  |  |  |  | 4.2 µM | 5.5 µM
CCOc1ccc(C(C)(C)COCc2cccc(Oc3ccccc3)c2)cc1 [Etofenprox, etofenprox] | 4.8 µM | 12 µM | 7 µM |  | 98.5 ± 0.2% |  | 
CC1(C)C(C=C(Cl)Cl)C1C(=O)OCc1cccc(Oc2ccccc2)c1 (centres unmarked) [Permethrin, permethrin] | 3.7 µM |  | 7.6 µM |  | 87.8 ± 0.7% | 8.1 µM | 
